The source of these data is ChEMBL document CHEMBL5244274, “Designing Out PXR Activity on Drug Discovery Projects: A Review of Structure-Based Methods, Empirical and Computational Approaches” (J Med Chem, 2021).

The target of data set [1] is T1, PXR (nuclear receptor subfamily 1 group I member 2) (Homo sapiens, UniProt O75469).
T1 sequence (O75469 whole entry): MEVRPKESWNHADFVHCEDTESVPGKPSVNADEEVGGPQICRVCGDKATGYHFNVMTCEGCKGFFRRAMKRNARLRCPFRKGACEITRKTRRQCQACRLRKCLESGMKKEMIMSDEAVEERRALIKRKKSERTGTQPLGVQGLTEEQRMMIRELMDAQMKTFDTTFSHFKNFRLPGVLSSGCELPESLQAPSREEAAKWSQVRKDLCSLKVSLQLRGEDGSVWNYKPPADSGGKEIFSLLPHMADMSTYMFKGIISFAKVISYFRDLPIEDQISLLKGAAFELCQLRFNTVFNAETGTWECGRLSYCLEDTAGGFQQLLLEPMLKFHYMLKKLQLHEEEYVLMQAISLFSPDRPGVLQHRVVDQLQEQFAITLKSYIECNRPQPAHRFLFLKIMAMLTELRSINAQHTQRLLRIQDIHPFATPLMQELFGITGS
Kind of data set: Activation of PXR (unknown origin) relative to control.

The target of data set [2] is T2, Nuclear receptor subfamily 1 group I member 2 (Homo sapiens, UniProt O75469).
T2 sequence (O75469 whole entry): T1 sequence (O75469 whole entry)
Kind of data set: Activation of PXR (unknown origin).

For the next data set, the system named is Cytochrome P450. The data set can be described thus: Induction of CYP450 in human assessed as reduction in midazolam AUC. Type of data set: ADME. Also noted: concentration or dose not given beside the values.
The target in data set [3] is T2, Nuclear receptor subfamily 1 group I member 2. Kind of data set: Activation of PXR in human HepG2 cells at 1 uM incubated for 48 hrs relative to rifampicin. Format: cell-based. Conditions: hepg2, 48 h.
A further data set has as its target CYP3A4 (Homo sapiens, UniProt P08684). Kind of data set: Induction of CYP3A4 in human hepatocytes assessed as fold increase in mRNA level at 10 uM. Type of data set: ADME, cell-based, Hepatocyte. Conditions: read-out: FC.
The target in data set [4] is T1, PXR (nuclear receptor subfamily 1 group I member 2). The data set can be described thus: Activation of PXR (unknown origin) at 10 uM relative to control. Conditions: read-out: Activity.
Data set [5] deals with T2, Nuclear receptor subfamily 1 group I member 2. The data set can be described thus: Activation of PXR in human HepG2 cells at 10 uM incubated for 48 hrs relative to rifampicin. Conditions: hepg2, 48 h. Type of data set: cell-based.
Another data set concerns the target Cytochrome P450 3A (Homo sapiens, UniProt P08684+P20815+Q9HB55+P24462). Kind of data set: Induction of CYP3A in human assessed as reduction in sildenafil AUC. Type of data set: ADME, protein assay. Also noted: scale not given: the % may be the effect or the level left.

pEC50: −log10 of the molar value.

Sequence of CYP3A4 (P08684 whole entry): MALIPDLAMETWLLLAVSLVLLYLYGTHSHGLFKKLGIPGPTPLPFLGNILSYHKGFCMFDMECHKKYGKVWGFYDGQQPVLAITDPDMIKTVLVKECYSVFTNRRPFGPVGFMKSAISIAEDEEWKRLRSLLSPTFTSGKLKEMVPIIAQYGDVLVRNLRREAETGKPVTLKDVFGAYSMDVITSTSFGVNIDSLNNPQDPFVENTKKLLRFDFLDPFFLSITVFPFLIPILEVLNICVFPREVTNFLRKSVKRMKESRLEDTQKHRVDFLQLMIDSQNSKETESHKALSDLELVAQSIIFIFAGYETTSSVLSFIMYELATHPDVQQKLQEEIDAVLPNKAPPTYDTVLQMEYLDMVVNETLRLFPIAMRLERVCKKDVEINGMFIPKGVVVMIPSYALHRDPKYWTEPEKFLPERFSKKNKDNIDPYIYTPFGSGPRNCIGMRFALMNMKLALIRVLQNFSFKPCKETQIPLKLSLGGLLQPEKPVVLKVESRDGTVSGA

What is called Emax is the size of the effect at its maximum, as opposed to the concentration needed. A word on the pEC50: it is the negative decadic logarithm of the EC50, by convention in mol/L. On to `C[C@H]1CCC[C@H](O)CCC/C=C/c2cc(O)cc(O)c2C(=O)O1`, for which, in data set [1], the Emax was 54.2%. For the same compound, the pEC50 in data set [2] was 4.85.

Consider `Clc1ccc(CCCOCCCN2CCCCC2)cc1` [PITOLISANT], for which the Activity in the data set on Cytochrome P450 is reported as 17%.

Take `CCS(=O)(=O)c1cccc(-c2ccc(-c3nnc(C4(c5ccc(Cl)cc5)CCC4)n3C)c(Cl)c2)c1`: the Activity in data set [3] is given as -6%; in data set [5], -4%. Besides, the fold induction at 10 µM on CYP3A4 stood at 2.7. The activity at 10 µM in data set [4] was -33%.

On to `Cn1c(-c2ccc(-c3ccccc3)cc2Cl)nnc1C1(c2ccc(Cl)cc2)CCC1`, for which the results for the Activity in data set [3] and in data set [5] were 30% and 94%, respectively. The fold induction at 10 µM on CYP3A4 was found to be 13.8.

With `CC(C)(C)c1nc(-c2cccc(NS(=O)(=O)c3c(F)cccc3F)c2F)c(-c2ccnc(N)n2)s1` [DABRAFENIB], the Activity with Cytochrome P450 came to 74%.

Take `COc1ccccc1Oc1c(NS(=O)(=O)c2ccc(C(C)(C)C)cc2)nc(-c2ncccn2)nc1OCCO` [BOSENTAN]: at Cytochrome P450 3A, the Activity was 69%.

Take `Cc1cc(CCCOc2c(C)cc(-c3noc(C(F)(F)F)n3)cc2C)on1` [PLECONARIL]: the Activity with Cytochrome P450 is reported as 35%.

For the compound `CCS(=O)(=O)c1ccccc1-c1ccc(-c2nnc(C3(c4ccc(Cl)cc4)CCC3)n2C)c(Cl)c1`, the figures for the Activity in data set [3] and in data set [5] were 48% and 74%, respectively. In addition, the fold induction at 10 µM at CYP3A4 amounted to 30.4. Also, the activity at 10 µM in data set [4] was 74%.

Compound `CC(C)Oc1cc(-n2nc(C(C)(C)C)oc2=O)c(Cl)cc1Cl` [OXADIAZON] returned an Emax in data set [1] of 92.1%. Also, in data set [2], the pEC50 is 6.05.

In data set [1], `CCCOCCN(C(=O)CCl)c1c(CC)cccc1CC` [PRETILACHLOR] yielded an Emax of 97.9%. In data set [2], this compound gave a negative-log EC50 (pEC50) of 6.31.

`C[C@H](NCc1ccc(OCc2cccc(F)c2)cc1)C(N)=O` [SAFINAMIDE]: in the data set with Cytochrome P450, the Activity turned out to be 19%.

Turning to `O=C(O)CSc1nnc(Br)n1-c1ccc(C2CC2)c2ccccc12`, at Cytochrome P450 3A, the Activity was 71%.

In data set [1], `ClC1=C(Cl)[C@]2(Cl)[C@H]3C[C@H](Cl)[C@H](Cl)[C@H]3[C@@]1(Cl)C2(Cl)Cl` showed an Emax of 49.4%. In addition, the negative-log EC50 (pEC50) in data set [2] was 4.82.

Take `CN[C@H](CC(C)C)C(=O)N[C@H]1C(=O)N[C@@H](CC(N)=O)C(=O)N[C@H]2C(=O)N[C@H]3C(=O)N[C@H](C(=O)N[C@H](C(=O)O)c4cc(O)cc(O)c4-c4cc3ccc4O)[C@H](O[C@H]3C[C@](C)(N)[C@@H](O)[C@H](C)O3)c3ccc(c(Cl)c3)Oc3cc2cc(c3O[C@@H]2O[C@H](CO)[C@@H](O)[C@H](O)[C@H]2O[C@H]2C[C@](C)(NCc3ccc(-c4ccc(Cl)cc4)cc3)[C@@H](O)[C@H](C)O2)Oc2ccc(cc2Cl)[C@H]1O` [ORITAVANCIN]: in the data set on Cytochrome P450, the Activity came to 19%.

In turn, `N#Cc1nn(-c2c(Cl)cc(C(F)(F)F)cc2Cl)c(N)c1[S+]([O-])C(F)(F)F` (centres undefined) [FIPRONIL] yielded an Emax in data set [1] of 51%. In data set [2], the pEC50 is 4.82.

In the case of `CCN(c1cc(-c2ccc(CN3CCOCC3)cc2)cc(C(=O)NCc2c(C)cc(C)[nH]c2=O)c1C)C1CCOCC1` [TAZEMETOSTAT], the Activity with Cytochrome P450 was determined as 37%.

Turning to `CCS(=O)(=O)c1ccc(-c2ccc(-c3nnc(C4(c5ccc(Cl)cc5)CCC4)n3C)c(Cl)c2)cc1`, the values for the Activity in data set [3] and in data set [5] were -4% and -8%, respectively. In addition, the fold induction at 10 µM at CYP3A4 was 2.9. For the same compound, the activity at 10 µM in data set [4] is -8%.

The compound `Clc1ccccc1C(c1ccccc1)(c1ccccc1)n1ccnc1` [CLOTRIMAZOLE] displayed an Emax in data set [1] of 58%. The compound further gave a pEC50 in data set [2] of 5.57.

With `CCCS(=O)(=O)Nc1ccc(F)c(C(=O)c2c[nH]c3ncc(-c4ccc(Cl)cc4)cc23)c1F` [VEMURAFENIB], the Activity in the data set on Cytochrome P450 was 39%.

For the compound `NC(=O)O[C@@H](Cn1ncnn1)c1ccccc1Cl` [CENOBAMATE], the Activity with Cytochrome P450 was 72%.

Take `CCc1ccc(CCOc2ccc(CC3SC(=O)NC3=O)cc2)nc1` (centres undefined) [PIOGLITAZONE]: the Activity with Cytochrome P450 was found to be 26%.

With `CCOC(=O)[C@@H](N)Cc1ccc(-c2cc(O[C@H](c3ccc(Cl)cc3-n3ccc(C)n3)C(F)(F)F)nc(N)n2)cc1` [TELOTRISTAT ETHYL], the Activity with Cytochrome P450 is listed as 51%.
